For one test, the target named is CRBN-DDB1 (Homo sapiens (Human), UniProt Q96SW2). In words: CRBN HTRF assay (Cy5-Thalidomide probe displacement). The class given is binding. The settings on record: CRBN-DDB1 2.5 nM, Cy5-Thalidomide 100 nM, 30 min; Ki from geometric mean IC50 by Cheng-Prusoff. A digest of the protocol: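 HTRF displacement of Cy5-thalidomide probe (100 nM) from His-CRBN-DDB1 (2.5 nM) with anti-His terbium cryptate, in HEPES/NaCl/TCEP/EDTA/Tween20 buffer. 10-point 1:3 compound series, 30 min at ambient temperature; signal normalised to DMSO and lenalidomide controls, IC50 fitted and Ki derived by Cheng-Prusoff.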
(Time-resolved FRET reads energy transfer from a long-lived donor to a nearby acceptor.)

Another test concerns the target CDK2 (Homo sapiens (Human), UniProt P24941). As to the kind of experiment: CDK2 NanoBiT assay (HiBiT-tagged CDK2 degradation). The class given is cell-based. The settings on record: HEK293, HEK293 clonal line, C-terminal HiBiT tag on CDK2, LgBiT; 24 hours. A digest of the protocol:
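HEK293 line with CRISPR knock-in C-terminal HiBiT-tagged CDK2 and stable LgBiT, preincubated 16 h with live-cell substrate, then compound-treated 24 h at 37° C, 5% CO2 (30 μM stock). Luminescence normalized to plate negative and positive controls; EC50 from 3-parameter logistic fit, Hill slope 1.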

This passage reports Ki and Dmax results from patent US20250263395A1, “COMPOUNDS THAT MEDIATE PROTEIN DEGRADATION AND METHODS OF USE THEREOF” (Monte Rosa Therapeutics AG, priority 2022, published 2025).

CRBN-DDB1, sequence (Q96SW2 whole entry): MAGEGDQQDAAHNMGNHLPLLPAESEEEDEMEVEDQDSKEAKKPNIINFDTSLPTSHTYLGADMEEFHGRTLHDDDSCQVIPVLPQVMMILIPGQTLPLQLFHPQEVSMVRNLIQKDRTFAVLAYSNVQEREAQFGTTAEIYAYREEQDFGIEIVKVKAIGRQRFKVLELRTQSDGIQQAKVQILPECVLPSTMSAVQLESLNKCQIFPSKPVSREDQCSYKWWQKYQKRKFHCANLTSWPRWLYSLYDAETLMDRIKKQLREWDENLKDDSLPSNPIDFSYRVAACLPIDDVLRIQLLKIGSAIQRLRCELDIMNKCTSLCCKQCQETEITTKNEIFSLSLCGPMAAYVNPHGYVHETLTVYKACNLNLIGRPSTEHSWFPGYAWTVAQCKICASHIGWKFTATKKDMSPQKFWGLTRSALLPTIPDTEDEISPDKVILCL
CRBN-DDB1, sequence (Q16531 whole entry partner): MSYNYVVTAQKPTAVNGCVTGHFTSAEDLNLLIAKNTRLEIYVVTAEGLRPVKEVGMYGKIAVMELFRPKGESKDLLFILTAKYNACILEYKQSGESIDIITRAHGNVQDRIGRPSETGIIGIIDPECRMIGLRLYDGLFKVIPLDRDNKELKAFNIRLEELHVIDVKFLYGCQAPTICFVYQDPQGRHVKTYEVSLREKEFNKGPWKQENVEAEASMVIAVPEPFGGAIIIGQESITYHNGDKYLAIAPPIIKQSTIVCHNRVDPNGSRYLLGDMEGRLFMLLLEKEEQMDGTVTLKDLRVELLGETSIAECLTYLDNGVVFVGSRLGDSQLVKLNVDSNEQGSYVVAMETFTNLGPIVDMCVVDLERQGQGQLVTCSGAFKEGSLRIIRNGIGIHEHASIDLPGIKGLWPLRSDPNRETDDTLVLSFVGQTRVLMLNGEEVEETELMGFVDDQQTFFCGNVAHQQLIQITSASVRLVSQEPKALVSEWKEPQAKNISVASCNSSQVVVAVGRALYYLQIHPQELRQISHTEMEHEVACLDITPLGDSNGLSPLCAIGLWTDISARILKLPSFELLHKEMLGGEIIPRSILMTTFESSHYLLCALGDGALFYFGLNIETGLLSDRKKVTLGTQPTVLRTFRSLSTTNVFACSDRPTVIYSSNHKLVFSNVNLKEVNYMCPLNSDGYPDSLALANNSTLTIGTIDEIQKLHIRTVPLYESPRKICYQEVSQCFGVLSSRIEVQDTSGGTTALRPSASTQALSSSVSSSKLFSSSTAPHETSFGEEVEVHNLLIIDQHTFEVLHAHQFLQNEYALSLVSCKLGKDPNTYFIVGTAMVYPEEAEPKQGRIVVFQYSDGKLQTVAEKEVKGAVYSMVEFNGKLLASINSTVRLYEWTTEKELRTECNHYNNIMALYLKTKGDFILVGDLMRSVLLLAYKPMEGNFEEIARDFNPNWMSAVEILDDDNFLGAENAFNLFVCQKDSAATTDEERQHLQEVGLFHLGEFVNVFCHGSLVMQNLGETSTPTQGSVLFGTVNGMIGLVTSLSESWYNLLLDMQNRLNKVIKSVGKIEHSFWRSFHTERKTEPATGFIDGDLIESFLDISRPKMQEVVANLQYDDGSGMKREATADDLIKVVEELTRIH

With `CN(C(=O)N1CC(OC(=O)NC2CN(c3cc(F)c(C4CCC(=O)NC4=O)c(F)c3)C2)C1)c1ccc(Cl)cc1` (centres unmarked) [Compound 138, 1-((4-chlorophenyl)(methyl)carbamoyl)azetidin-3-yl (1-(4-(2,6-dioxopiperidin-3-yl)-3,5-difluorophenyl)azetidin-3-yl)carbamate], the Ki (in general, the dissociation constant of the complex between target and ligand, obtained from inhibition or displacement) at CRBN-DDB1 is at most 100 nM. Also, the Dmax (in general, the greatest extent of degradation seen) on CDK2 fell in the range of 50 to 80%.

With `COC12CC(c3nnc(N[C@H]4CN(c5cc(F)c(C6CCC(=O)NC6=O)c(F)c5)[C@@H]4C)o3)(C1)C2` (stereo partly drawn) [Compound 139, 3-(2,6-difluoro-4-((2R,3S)-3-((5-(3-methoxybicyclo[1.1.1]pentan-1-yl)-1,3,4-oxadiazol-2-yl)amino)-2-methylazetidin-1-yl)phenyl)piperidine-2,6-dione], the Ki at CRBN-DDB1 is 100 to 1000 nM. This compound showed a Dmax at CDK2 of 50 to 80%.

Compound `C[C@@H]1[C@@H](Nc2nnc(C34CC(C(F)(F)F)(C3)C4)o2)CN1c1cc(F)c(C2CCC(=O)NC2=O)c(F)c1` (stereo partly drawn) [Compound 140, 3-(2,6-difluoro-4-((2R,3S)-2-methyl-3-((5-(3-(trifluoromethyl)bicyclo[1.1.1]pentan-1-yl)-1,3,4-oxadiazol-2-yl)amino)azetidin-1-yl)phenyl)piperidine-2,6-dione] came in with a Ki on CRBN-DDB1 of 100 to 1000 nM. The compound also returned a Dmax on CDK2 of 50 to 80%.

With `C[C@@H]1[C@@H](Nc2nnc(-c3ccc(C(F)(F)F)cc3)o2)CN1c1cc(F)c(C2CCC(=O)NC2=O)c(F)c1` (stereo partly drawn) [Compound 141, 3-(2,6-difluoro-4-((2R,3S)-2-methyl-3-((5-(4-(trifluoromethyl)phenyl)-1,3,4-oxadiazol-2-yl)amino)azetidin-1-yl)phenyl)piperidine-2,6-dione], the Ki on CRBN-DDB1 was in the range of 100 to 1000 nM. Besides, the Dmax at CDK2 is 50 to 80%.

Regarding `C[C@@H]1[C@@H](Nc2nnc(C3CC4(CCC4)C3)o2)CN1c1cc(F)c(C2CCC(=O)NC2=O)c(F)c1` (stereo partly drawn) [Compound 142, 3-(2,6-difluoro-4-((2R,3S)-2-methyl-3-((5-(spiro[3.3]heptan-2-yl)-1,3,4-oxadiazol-2-yl)amino)azetidin-1-yl)phenyl)piperidine-2,6-dione], at CRBN-DDB1, the Ki is at most 100 nM. Also, the Dmax on CDK2 lay in the range of 50 to 80%.

Compound `Cc1ccc(-c2nnc(N[C@H]3CN(c4cc(F)c(C5CCC(=O)NC5=O)c(F)c4)[C@@H]3C)o2)cc1` (stereo partly drawn) [Compound 143, 3-(2,6-difluoro-4-((2R,3S)-2-methyl-3-((5-(p-tolyl)-1,3,4-oxadiazol-2-yl)amino)azetidin-1-yl)phenyl)piperidine-2,6-dione] returned a Ki at CRBN-DDB1 of 100 to 1000 nM. Moreover, at CDK2, the Dmax is 50 to 80%.

The compound `C[C@@H]1[C@@H](Nc2nnc(-c3ccc(OC(F)(F)F)cc3)o2)CN1c1cc(F)c(C2CCC(=O)NC2=O)c(F)c1` (stereo partly drawn) [Compound 144, 3-(2,6-difluoro-4-((2R,3S)-2-methyl-3-((5-(4-(trifluoromethoxy)phenyl)-1,3,4-oxadiazol-2-yl)amino)azetidin-1-yl)phenyl)piperidine-2,6-dione] returned a Ki on CRBN-DDB1 of at most 100 nM. For the same compound, the Dmax at CDK2 is 50 to 80%.
